Assay results: patent publication EP0429372A1, “2-Azolyl nicotinate derivatives as herbicides” (RHONE-POULENC AGROCHIMIE, priority 1989, dated 1991)
Where two headings read alike, the source gives them in different places.

Assays:
Format in all cases: in vivo
[1] = system: Solanum nigrum; assay: Example B: post-emergence herbicidal application, pot test; conditions: 1000 g/ha, 576 h
Excerpt: (§1) Dans des pots de 7 x 7 x 8 cm remplis de terre agricole légère, on sème un nombre de graines déterminé en fonction de l'espèce végétale et de la grosseur de la graine.
(§2) On recouvre ensuite les graines d'une couche de terre d'environ 3 mm d'épaisseur et on laisse germer la graine jusqu'à ce qu'elle donne naissance à une plantule au stade convenable. Le stade de traitement pour les graminées est le stade "deuxième feuille en formation ". Le stade de traitement pour les dicotylédones, est le stade "cotylédons étalés, première feuille vraie en développement".
(§3) Les pots sont alors traités par pulvérisation de bouillie en quantité correspondant à une dose volumique d'application de 500 l/ha et contenant la matière active à la concentration désirée.
(§4) La bouille a été préparée de la même manière qu'à l'exemple A.
(§5) Les pots traités sont ensuite placés dans des bacs destinés à recevoir l'eau d'arrosage, en subirrigation, et maintenus pendant 24 jours à température ambiante sous 70 % d'humidité relative.
(§6) Au bout de 24 jours, on mesure un pourcentage (D) de destruction du nombre de pieds dans le pot traité par rapport au nombre de plantes dans les pots non traités (témoin). On mesure, sur les plantes traitées restantes, le pourcentage de réduction de taille (RT) par rapport aux plantes témoin.
(§7) Le pourcentage du volume foliaire non détruit par le produit est donc donné par la formule : [formula]
(§8) Cette valeur A est transformée en notation de 0 à 5 selon l'échelle suivante :
(§9) Les résultats obtenus sont présentés après le tableau A pour des doses d'application de 4000 g/ha.

[2] = system: Ipomea purpurea; assay: as above; conditions: 1000 g/ha, 576 h
Excerpt: as §1, §2, §3, §4, §5, §6, §7, §8, §9

[3] = system: Echinochloa crusgalli; assay: as above; conditions: 1000 g/ha, 576 h
Excerpt: as §1, §2, §3, §4, §5, §6, §7, §8, §9

[4] = system: Digitaria sanguinalis; assay: as above; conditions: 1000 g/ha, 576 h
Excerpt: as §1, §2, §3, §4, §5, §6, §7, §8, §9

[5] = system: Chrysanthemum segetum; conditions: post-emergence, 1000 g/ha, 576 h
Excerpt: as §1
as §2, with “formation".” for “formation ".”
as §3
(§10) La bouillie a été préparée de la même manière qu'à l'exemple A.
as §5, §6
(§11) Le pourcentage de volume foliaire non détruit par le produit est donc donné par la formule : [formula]
as §8
(§12) Ainsi, un produit est jugé comme sélectif vis à vis de la culture lorsque la valeur A notée est de 0 ou 1.
(§13) Les résultats obtenus sont présentés dans l'exemple C pour des doses d'application comprises entre 0,5 et 4 kg de matière active par hectare selon les produits.

[6] = system: Convolvulus arvensis; conditions: post-emergence, 1000 g/ha, 576 h
Excerpt: as §1
as §2, with “formation".” for “formation ".”
as §3, §10, §5, §6, §11, §8, §12, §13

[7] = system: Polygonum convolvulus; conditions: 1000 g/ha, 576 h
Excerpt: as §1
as §2, with “formation".” for “formation ".”
as §3, §10, §5, §6, §11, §8, §12, §13

[8] = system: Oryza sativa; assay: Example C: selectivity test in major crops, post-emergence application; conditions: crop (Riz), dose 1 kg/ha, 24 days, score 0-5, 0 or 1 = selective; also: ranges in brackets are in %
Excerpt: as §1
as §2, with “formation".” for “formation ".”
as §3, §10, §5, §6, §11, §8, §12, §13

[9] = system: Sesbania exaltata; assay: as above; conditions: 1000 g/ha, 576 h
Excerpt: as §1
as §2, with “formation".” for “formation ".”
as §3, §10, §5, §6, §11, §8, §12, §13

[10] = system: Viola tricolor; assay: as above; conditions: 1000 g/ha, 576 h
Excerpt: as §1
as §2, with “formation".” for “formation ".”
as §3, §10, §5, §6, §11, §8, §12, §13

[11] = system: Solanum nigrum; assay: as above; conditions: 1000 g/ha, 576 h
Excerpt: as §1
as §2, with “formation".” for “formation ".”
as §3, §10, §5, §6, §11, §8, §12, §13

[12] = system: Triticum aestivum; assay: as above; conditions: crop (Blé), dose 1 kg/ha, 24 days, score 0-5, 0 or 1 = selective; also: ranges in brackets are in %
Excerpt: as §1
as §2, with “formation".” for “formation ".”
as §3, §10, §5, §6, §11, §8, §12, §13

[13] = system: Ipomea pupurea; assay: as above; conditions: 1000 g/ha, 576 h
Excerpt: as §1
as §2, with “formation".” for “formation ".”
as §3, §10, §5, §6, §11, §8, §12, §13

[14] = system: Xanthium pennsylvanicum; assay: as above; conditions: 1000 g/ha, 576 h
Excerpt: as §1
as §2, with “formation".” for “formation ".”
as §3, §10, §5, §6, §11, §8, §12, §13

[15] = system: Zea mays; assay: as above; conditions: crop (Maïs), dose 1 kg/ha, 24 days, score 0-5, 0 or 1 = selective; also: ranges in brackets are in %
Excerpt: as §1
as §2, with “formation".” for “formation ".”
as §3, §10, §5, §6, §11, §8, §12, §13

[16] = system: Sinapis alba; assay: Example B: post-emergence herbicidal application, pot test; conditions: 1000 g/ha, 576 h
[17] = system: mauvaises herbes; conditions: post-emergence
Excerpt: (§14) Des quantités appropriées des composés d'essai ont été dissoutes dans de l'acétone pour obtenir des solutions équivalant à des taux d'application de 250, 1000 ou 4000 g de composé d'essai par hectare (g/ha).
Des espèces de mauvaises herbes ont été cultivées, puis transplantées au stade de jeunes plants de semis dans du compost de mise en pot John Innes N°1 dans des pots en matière plastique de 70 mm de côté et 75 mm de profondeur, sauf en ce qui concerne Avena fatua, qui a été semée directement dans le pot d'essai et n' a pas été transplantée. Puis les plantes ont été cultivées dans la serre jusqu'à ce qu'elles soient prêtes à subir une pulvérisation avec les composés d'essai. Le nombre de plantes par pot et la croissance de la plante au moment de la pulvérisation étaient les suivantes :
Les composés d'essai ont été appliquées aux plantes de la manière décrite dans le paragraphe (a) ci-dessus. Un seul pot de chaque espèce de mauvaises a été attribué à chaque traitement, en association avec des témoins n'ayant pas subi de pulvérisation et des témoins ayant subi une pulvérisation avec de l'acétone seule. Après pulvérisation, les pots ont été arrossés par aspersion, en commençant 24 heures après pulvérisation. L'évalutation visuelle de la lutte contre la croissance des mauvaises herbes a été effectuée 17 à 20 jours après pulvérisation. Les résultats ont été exprimés en pourcentage de réduction de croissance ou de mortalité des mauvaises herbes, comparativement aux plantes présentes dans les pots témoins.

[18] = system: mauvaises herbes; assay: Procedure 1 b): weed control, pre-emergence application; conditions: 4000 g/ha (procédé 1B), visual rating 17 to 20 days after spraying, vs control pots
Excerpt: as §14
Des graines de mauvaises herbes ont été semées à la surface de compost de mise en pot John Innes N°1 (7 parties par volume de terre végétale stérilisée, 3 parties en volume de gravier fin) dans des pots en matière plastique de 70 mm de côté et 75 mm de profondeur. Les quantités de graines par pot étaient les suivantes :
Les composés de la présente invention ont été appliqués aux graines non recouvertes de la manière décrite dans le paragraphe (a) ci-dessus et ces graines ont été recouvertes avec 25ml de sable liant après pulvérisation. Un seul pot de chaque espèce de mauvaise herbe a été attribué à chaque traitement, en association avec des témoins n'ayant pas subi de pulvérisation et des témoins ayant subi une pulvérisation avec de l'acétone seule. Après traitement, les pots ont été maintenus dans une serre et ont été arrosés par aspersion. L'évaluation visuelle de l'activité de destruction des mauvaises herbes a été effectuée 17 à 20 jours après pulvérisation. Les résultats ont été exprimés par le pourcentage de réduction de croissance ou de mortalité des mauvaises herbes, comparativement aux plantes présentes dans les pots témoins.

Structure (SMILES) | ACTIVITE DE POST-LEVEE SOL [1] | ACTIVITE DE POST-LEVEE IPO [2] | ACTIVITE DE POST-LEVEE ECH [3] | ACTIVITE DE POST-LEVEE DIG [4] | ACTIVITE HERBICIDE DE POST LEVEE C H Y [5] | ACTIVITE HERBICIDE DE POST LEVEE C O N [6] | ACTIVITE HERBICIDE DE POST LEVEE P O L [7] | ACTIVITE HERBICIDE DE POST LEVEE O R Y [8] | ACTIVITE HERBICIDE DE POST LEVEE S E S [9] | ACTIVITE HERBICIDE DE POST LEVEE V I O [10] | ACTIVITE HERBICIDE DE POST LEVEE S O L [11] | ACTIVITE HERBICIDE DE POST LEVEE T R Z [12] | ACTIVITE HERBICIDE DE POST LEVEE I P O [13] | ACTIVITE HERBICIDE DE POST LEVEE X A N [14] | ACTIVITE HERBICIDE DE POST LEVEE Z E A [15] | ACTIVITE DE POST-LEVEE SIN [16] | réduction de la croissance d'une ou plusieurs des espèces de mauvaises herbes [17] [%] | réduction de la croissance d'une ou plusieurs des espèces de mauvaises herbes [18] [%]
CN(C)S(=O)(=O)n1c(-c2ncccc2C(=O)O)nc2ccccc21 [compound 122] | 5 (O à 10) | 4 (10 à 30) | 2 (50 à 70) | 1 (70 à 90) | 5 (O à 10) | 5 (O à 10) | 5 (O à 10) | 0 (90 à 100) | 5 (O à 10) | 3 (30 à 50) | 5 (O à 10) | 0 (90 à 100) | 5 (O à 10) | 5 (O à 10) | 0 (90 à 100) | 5 (O à 10) |  | 
CN(C)S(=O)(=O)n1c(-c2ncccc2C(=O)O)nc2cc(OC(F)(F)F)ccc21 [compound 92] |  |  |  |  |  |  |  |  |  |  |  |  |  |  |  |  | ≥ 90 | ≥ 90
C=CCOC(=O)c1cccnc1-c1nc2ccccc2n1S(=O)(=O)N(C)C [compound 101] |  |  |  |  |  |  |  |  |  |  |  |  |  |  |  |  | ≥ 90 | ≥ 90
